{
  "source": "paper PMC9202104",
  "about": "(BMC Biology, 2022)",
  "key": {"[1]": {"test_system": "8 human ZIKV strains (PAN2016, R116265, PAN2015, FLR, R103451, PRVABC59, PLCal_ZV, IbH 30656)", "assay": "microbe, parasite or virus in culture", "assay_type": "cell-based", "details": "Zika virus, read-out: Average IC50 (human strains)", "protocol": "(§1) After removal of the unbound compounds by centrifugation (after addition of 3% PEG-6000), ZIKV was incubated with Vero E6 cells in 24-well plates at 37°C for 1 h. The cells were then washed with PBS, overlaid with DMEM containing 1% carboxymethyl cellulose and 2% FBS, and cultured at 37°C for 4–5 days, followed by being stained with 0.5% crystal violet. […] Plaques in each well were calculated, and IC50 of compounds for each compound was calculated using the CalcuSyn computer program."}, "[2]": {"test_system": "ZIKV human strain R116265", "assay": "ZIKV vertical transmission in pregnant Ifnar1−/− mice", "assay_type": "in vivo", "details": "5 dpi", "protocol": "Briefly, groups of 5 pregnant mice (10–12-week-old, E12-14) were i.p. injected with ST087010 (20 mg/kg of body weight, 200 μl/mouse), or DMSO (negative control), 12 h before and 6, 24, and 48 h after i.p. infection with ZIKV (human strain R116265, 10^3 PFU). Five days post-infection, mice were sacrificed; viral titers were assessed using plaque assay in the sera, placenta, fetal brain, and amniotic fluid, and uteri and fetuses were assessed for morphological and size changes. The placenta was also assessed for apoptosis and viral replication by immunofluorescence staining, as described below.\n(§2) Immunofluorescence staining was carried out to detect ZIKV and caspase-3 signals in ZIKV-infected mouse tissues. Briefly, tissues were fixed in 4% formaldehyde, embedded in paraffin, and sectioned. The tissue sections were deparaffinized, fixed, and permed using the FIX and PERM Cell Permeabilization Kit (Thermo Fisher Scientific, Waltham, MA, USA). After blocking with 5% BSA, the tissue slides were incubated at 37°C 2 h with ZIKV EDIII-specific human mAb (ZV-67, 1:100, Absolute Antibody, Boston, MA, USA), or rabbit anti-active caspase-3 antibody (1:100, Abcam). The slides were washed with PBS and incubated for 30 min with anti-human FITC antibody (1:100, for ZIKV), or anti-rabbit Alexa Fluor 647 antibody (1:100, for caspase-3). The slides were then counterstained for nuclei, using DAPI (300 nM, Thermo Fisher Scientific, Waltham, MA, USA) for 5 min, and mounted in VectaMount Permanent Mounting Medium (Vector Laboratories, CA, USA). The slides were analyzed using a confocal microscope (Zeiss LSM 880) and ZEN software, and fluorescent signals were quantified by ImageJ software."}, "[3]": {"test_system": "ZIKV human strain PAN2016", "assay": "ZIKV challenge in adult Ifnar1−/− mice, tissue viral titers and immunofluorescence", "assay_type": "in vivo", "details": "5 dpi", "protocol": "Briefly, 7–8-week-old male mice were used, and two separate experiments were performed. […] These mice were i.p. infected with ZIKV (human strain R103451, 200 PFU/mouse) and observed daily for weight changes and survival until 21 dpi. […] Five days later, these mice were sacrificed, and their tissues, including the heart, testis, eye, kidney, and brain, were collected for detection of viral titers by plaque assay, or apoptosis by immunofluorescence staining. Mice losing 20% of initial weight with severe symptoms, including hind limb weakness and paralysis, or 25% of initial weight, were humanely euthanized with an overdose isoflurane in a Bell Jar, followed by cervical dislocation.\nPlaque assay was used to detect viral titers in ZIKV-infected tissues. Briefly, tissues were homogenized with cold culture medium (DMEM + 2% FBS) and then centrifuged (2000 g at 4°C for 10 min). Supernatants were serially diluted to infect Vero E6 cells in 24-well plates. ZIKV titers in tissues were measured from ~40 mg of samples; thus, the detection limit was about 25 PFU/g of tissues.\nas §2"}, "[4]": {"test_system": "DENV-2 human strain V594", "assay": "DENV-2 challenge in Ifnar1−/− mice, flow cytometry titers", "assay_type": "in vivo", "details": "20 mg/kg i.p., 3 dpi", "protocol": "Three days after infection, sera and tissues, including the brain, kidney, and heart, were collected and assessed for DENV infection using a flow cytometry assay, as described below. Tissues were freshly homogenized with cold culture medium (EMEM + 2% FBS) and centrifuged at 4°C and 2000 g for 10 min. Serially diluted tissue supernatants and sera were added to C6/36 cells, as described below. DENV titers in tissues or sera were assessed from ~20 mg of tissue samples, or 25 μl of sera, and used for subsequent flow cytometry analysis.\nFlow cytometry assay was carried out to analyze DENV-2 titers in the supernatants of homogenized tissues and sera from DENV-2-infected mice collected above. Briefly, homogenized tissue supernatants or sera were added to C6/36 cells (5×10^5 cells/well) pre-seeded in 24-well plates which the culture medium was removed, and the cells were incubated for 1 h (28°C, 5% CO2). After incubation, the cells were washed with PBS, incubated with EMEM containing 2% FBS, and then cultured for 3 days as described above. After further removal of medium, the cells were digested, washed with PBS, and resuspended in FIX/PERM solution (Tonbo Biosciences, San Diego, CA, USA), followed by incubation at 4°C for 1 h in the dark. The cells were then sequentially incubated with mouse anti-flavivirus mAb 4G2 (2 μg/ml) at 37°C for 1 h and FITC-labeled anti-mouse IgG (0.5 mg/ml, BioLegend, San Diego, CA, USA) at 37°C for 30 min, followed by analysis using a FACScan flow cytometer and Summit software. Viral titers (infectious units/ml or infectious units/g) were calculated using the formula ((% of infected cells)×(total number of cells)×(dilution factor)/(amount of inoculum added to cells))."}, "[5]": {"test_system": "DENV-3-V1043", "assay": "Plaque assay, inhibition of DENV-3 infection in LLC-MK2 cells", "assay_type": "cell-based", "details": "Dengue virus, DENV3"}, "[6]": {"test_system": "ZIKV human strain PLCal_ZV", "assay": "Plaque assay, inhibition of ZIKV infection (strain PLCal_ZV)", "assay_type": "cell-based", "details": "Zika virus, Vero C1008; plaque assay, Vero E6 cells, human strain; read-out: IC50 PLCal_ZV", "protocol": "as §1"}, "[7]": {"test_system": "ZIKV mosquito strain MEX 2-81", "assay": "Plaque assay, inhibition of ZIKV infection (strain MEX 2-81)", "assay_type": "cell-based", "details": "Zika virus, Vero C1008; plaque assay, Vero E6 cells, mosquito strain; read-out: IC50 MEX 2-81", "protocol": "as §1"}, "[8]": {"details": "immunofluorescence, compared to DMSO"}, "[9]": {"details": "C6/36 cells, flow cytometry, representative image"}},
  "data": [
    {"smiles": "Cc1cc2c(C(C)C)c(O)c(O)c(/C=N/n3c(=O)[nH][nH]c3=O)c2c(O)c1-c1c(C)cc2c(C(C)C)c(O)c(O)c(/C=N/n3c(=O)[nH][nH]c3=O)c2c1O", "note": "[ST087010]", "values": [
      {"measurement": "IC50", "setting": "[1]", "result": 2900, "unit": "nM"},
      {"measurement": "Staining of ZIKV+ or caspase-3 signals in placental tissues", "setting": "[2]; [8]", "result": "undetectable, or diminished"},
      {"measurement": "Viral titers in sera, placenta, fetal brain, and amniotic fluid", "setting": "[2]; pregnant mice, 20 mg/kg i.p., ZIKV R116265 10^3 PFU, compared to DMSO", "result": "significantly reduced"},
      {"measurement": "Condition of fetuses", "setting": "[2]; pregnant mice, 20 mg/kg i.p., ZIKV R116265", "result": "all in good condition"},
      {"measurement": "Viral titers in the heart, testis, eye, kidney, and brain", "setting": "[3]; 20 mg/kg i.p., ZIKV PAN2016 200 PFU, compared to gossypol or DMSO-treated mice", "result": "significantly reduced"},
      {"measurement": "ZIKV+ signals in eye and testis tissues", "setting": "[3]; immunofluorescence", "result": "undetectable"},
      {"measurement": "Caspase-3 staining in eye and testis tissues", "setting": "[3]; [8]", "result": "undetectable, or diminished"},
      {"measurement": "Numbers of infected cells (viral titers) in the brain, kidney, heart, and sera", "setting": "[4]; DENV-2 V594 2×10^6 PFU, compared to gossypol and DMSO", "result": "significantly reduced"},
      {"measurement": "DENV-2 in brain, percentage of infected cells", "setting": "[4]; [9]", "result": 1.1, "unit": "%"},
      {"measurement": "DENV-2 in heart, percentage of infected cells", "setting": "[4]; [9]", "result": 1.0, "unit": "%"},
      {"measurement": "DENV-2 in kidney, percentage of infected cells", "setting": "[4]; [9]", "result": 3.1, "unit": "%"},
      {"measurement": "DENV-2 in sera, percentage of infected cells", "setting": "[4]; [9]", "result": 1.3, "unit": "%"},
      {"measurement": "IC50", "setting": "[5]", "result": "3.33 ± 0.08", "unit": "µM"},
      {"measurement": "IC50", "setting": "[6]", "result": 2200, "unit": "nM"},
      {"measurement": "IC50", "setting": "[7]", "result": 2900, "unit": "nM"}
    ]}
  ]
}
